The target of one assay is T1, PSD-95 PDZ1 (Homo sapiens, UniProt P78352).
T1 construct: PSD-95 PDZ1 (aa 61–151); made in house; host or cells: E. coli One Shot BL21 Star (DE3)
The experiment in a line: FP competition assay, PSD-95 PDZ1 (probe Cy5-KIF1Bα). The format is binding.

In a further assay the target is T2, PSD-95 PDZ2 (Homo sapiens, UniProt P78352).
T2 construct: PDZ2 (aa 155–249); made in house; host or cells: E. coli One Shot BL21 Star (DE3)
The experiment in a line: FP competition assay, PSD-95 PDZ2 (probe Cy5-GluN2B). It is filed as binding. As to conditions: read-out: K i PDZ2.

The next assay has as its target T3, PSD-95 PDZ3 (Homo sapiens, UniProt P78352).
T3 construct: made in house; host or cells: E. coli One Shot BL21 Star (DE3)
As to the kind of experiment: FP competition assay, PSD-95 PDZ3 (probe Cy5-CRIPT). The format is binding. The protocol: (§1) We used a competition set-up, where a constant concentration of isolated PSD-95 PDZ domain and a labeled reference ligand was titrated with unlabeled peptides from the GPCR C-tail library, typically within a 1–512 µM concentration range, and the resulting curves were fitted to obtain the IC50, which was used to calculate the K i (Figure 1). Three Cy5-labeled peptides with well-documented interactions with PSD-95 were used as reference ligands for the competition assay: Cy5-KIF1Bα was used for PDZ1 [20], Cy5-GluN2B (formerly known as NR2B) was used for PDZ2 and PDZ1-2 [21], and Cy5-CRIPT was used for PDZ3 [22] (Table S1). Competition with unlabeled versions of the reference ligands was used to validate the FP assay by comparison with the literature (Table S2).
(§2) FP measurements were performed in black, flat bottom 384-well NBS microplates (Corning) on a Synergy H4 microplatereader (BioTek Instruments) equipped with a 620/40 nm excitation filter, a 680/30 nm emission filter, and a 660 nm dichroic mirror. Polarization values were corrected with blank samples and samples with fluorescent probe alone. At least 10 data points were measured for each curve, and each data point was measured in triplicate. 25 nM Cy5-labeled probe was used for each assay: Cy5-KIF1Bα for PDZ1, Cy5-GluN2B for PDZ2 and PDZ1-2, and Cy5-CRIPT for PDZ3. All FP measurements were performed in a buffer containing 10 mM HEPES pH 7.4, 150 mM NaCl, and 1% BSA and incubated at least 15 min at room temperature before reading. The signal was stable for more than an hour, showing that the reaction was at equilibrium.
Saturation binding curves were used to determine the functionality of the PDZ domains by comparison with literature values and to calculate K i values from competition curves. Saturation binding curves were performed by mixing probe with a twofold dilution series of PDZ protein in a total volume of 30 µl. The K d was determined by fitting to a 1∶1 binding model: Y = Ymax × X/(X+K d).
(§3) For the competition binding curves, probe was mixed with a constant concentration of PDZ protein corresponding to the K d and a twofold dilution series of unlabeled peptide in a total volume of 30 µl. The baseline was determined using a sample containing only probe. The IC50 was determined by fitting to a 1∶1 binding model: Y = Ymax − Ymax × X/(X+IC50). The K i was calculated from the IC50 and from the K d for the interaction between the PDZ protein and the probe as described previously.

The next assay deals with PSD-95. As to the kind of experiment: FP competition assay, PSD-95 PDZ domains overall (strongest binding domain / non-binders). The note with it: FP competition with the isolated PDZ domains, peptide typically 1–512 µM. As for the experimental part:
as §1, §2, §3

Where [1] appears, read: 25 nM Cy5-KIF1Bα, 10 mM HEPES pH 7.4, 150 mM NaCl, 1% BSA, room temperature, at least 15 min, Ki ± fitting error, read-out: K i PDZ1.

The source of these data is paper PMC3653948, “PDZ Domain-Mediated Interactions of G Protein-Coupled Receptors with Postsynaptic Density Protein 95: Quantitative Characterization of Interactions” (PLoS ONE, 2013).

“Also recorded” adds a separate entry of the source. Read-outs that look alike come from different tables or passages of the source. Peptide text beside a SMILES is read from it. Bounds are passed on as bounds.

Experimental for PSD-95 PDZ1: (§4) FP measurements were performed in black, flat bottom 384-well NBS microplates (Corning) on a Synergy H4 microplatereader (BioTek Instruments) equipped with a 620/40 nm excitation filter, a 680/30 nm emission filter, and a 660 nm dichroic mirror. Polarization values were corrected with blank samples and samples with fluorescent probe alone. At least 10 data points were measured for each curve, and each data point was measured in triplicate. […] All FP measurements were performed in a buffer containing 10 mM HEPES pH 7.4, 150 mM NaCl, and 1% BSA and incubated at least 15 min at room temperature before reading. The signal was stable for more than an hour, showing that the reaction was at equilibrium.
(§5) For the competition binding curves, probe was mixed with a constant concentration of PDZ protein corresponding to the K d and a twofold dilution series of unlabeled peptide in a total volume of 30 µl. The baseline was determined using a sample containing only probe. The IC50 was determined by fitting to a 1∶1 binding model: Y = Ymax − Ymax × X/(X+IC50). The K i was calculated from the IC50 and from the K d for the interaction between the PDZ protein and the probe as described previously [38].
Experimental for PSD-95 PDZ2: as §4, §5

Turning to `CC(C)[C@H](NC(=O)[C@H](CS)NC(=O)[C@H](CO)NC(=O)[C@@H](NC(=O)[C@H](CCCCN)NC(=O)[C@H](CCC(=O)O)NC(=O)[C@H](CC(N)=O)NC(=O)[C@@H](NC(=O)CNC(=O)[C@H](CC(=O)O)NC(=O)[C@H](CCCNC(=N)N)NC(=O)[C@H](CC(=O)O)NC(=O)[C@H](CC(=O)O)NC(=O)[C@@H](N)Cc1ccc(O)cc1)C(C)C)C(C)C)C(=O)O` [5-HTR2A] (H-YDDRDGVNEKVSCV-OH), the Ki at PSD-95 PDZ1 (setting [1]) was 160 ± 4 µM; at PSD-95 PDZ2, 46 ± 0.2 µM; on PSD-95 PDZ3 (read-out: K i PDZ3), greater than 1000 µM.
Turning to `CC(C)C[C@H](NC(=O)[C@@H](NC(=O)[C@@H](NC(=O)[C@H](CO)NC(=O)[C@@H](NC(=O)[C@H](Cc1c[nH]cn1)NC(=O)CNC(=O)[C@H](CO)NC(=O)[C@H](CO)NC(=O)[C@H](CO)NC(=O)[C@H](CCCNC(=N)N)NC(=O)[C@H](CC(=O)O)NC(=O)[C@H](CC(=O)O)NC(=O)[C@@H](N)Cc1ccc(O)cc1)[C@@H](C)O)[C@@H](C)O)[C@@H](C)O)C(=O)O` [CXCR2] (H-YDDRSSSGHTSTTL-OH), the Ki stood at 280 ± 25 µM on PSD-95 PDZ1 (25 nM Cy5-KIF1Bα, 10 mM HEPES pH 7.4, 150 mM NaCl, 1% BSA, room temperature, mean Ki ± SEM from two or more independent experiments, read-out: K i PDZ1); 370 ± 53 µM at PSD-95 PDZ2; 370 ± 39 µM at PSD-95 PDZ3 (read-out: K i PDZ3).
As to `CC[C@H](C)[C@H](NC(=O)[C@H](CO)NC(=O)[C@H](CO)NC(=O)[C@H](CC(C)C)NC(=O)[C@H](CCCCN)NC(=O)[C@H](CCC(=O)O)NC(=O)[C@@H](N)Cc1ccc(O)cc1)C(=O)N[C@@H](CCC(=O)O)C(=O)N[C@@H](CO)C(=O)N[C@@H](CC(=O)O)C(=O)N[C@H](C(=O)O)C(C)C` [GluN2B, reference compound] (H-YEKLSSIESDV-OH), the Ki was 29 ± 2.5 µM on PSD-95 PDZ1 (unlabeled reference ligand vs Cy5-KIF1Bα, mean Ki ± SEM from two or more independent experiments, read-out: Ki PDZ1 Result (Table S2)) and greater than 1000 µM at PSD-95 PDZ3 (FP competition, unlabeled reference ligand vs Cy5-CRIPT, Ki ± fitting error, read-out: Ki PDZ3 Result (Table S2)).
For the compound `CC[C@H](C)[C@H](NC(=O)[C@H](CO)NC(=O)[C@@H](NC(=O)[C@H](CCC(N)=O)NC(=O)[C@H](CC(C)C)NC(=O)[C@H](CC(=O)O)NC(=O)CNC(=O)[C@H](CC(N)=O)NC(=O)[C@H](CC(C)C)NC(=O)[C@H](CC(C)C)NC(=O)[C@H](CCCNC(=N)N)NC(=O)[C@H](CC(=O)O)NC(=O)[C@H](CC(=O)O)NC(=O)[C@@H](N)Cc1ccc(O)cc1)[C@@H](C)O)C(=O)O` [SSTR2A] (H-YDDRLLNGDLQTSI-OH), the Ki at PSD-95 PDZ1 (setting [1]) is 620 ± 106 µM; at PSD-95 PDZ2, 230 ± 2 µM; at PSD-95 PDZ3 (read-out: K i PDZ3), greater than 1000 µM.
With `CC(C)C[C@H](NC(=O)[C@H](CC(C)C)NC(=O)[C@H](CO)NC(=O)[C@H](CC(=O)O)NC(=O)[C@H](CC(N)=O)NC(=O)[C@@H](NC(=O)[C@H](CO)NC(=O)[C@H](CS)NC(=O)[C@H](CC(N)=O)NC(=O)[C@H](CCCNC(=N)N)NC(=O)[C@H](CCCNC(=N)N)NC(=O)[C@H](CC(=O)O)NC(=O)[C@H](CC(=O)O)NC(=O)[C@@H](N)Cc1ccc(O)cc1)[C@@H](C)O)C(=O)O` [β2AR] (H-YDDRRNCSTNDSLL-OH), the Ki on PSD-95 PDZ1 (setting [1]) and on PSD-95 PDZ3 (read-out: K i PDZ3) was greater than 1000 µM in each case.
As to “ANGLMQTSKL [SSTR5, synthetic peptide, C-terminal 10 aa of human SSTR5 with N-terminal YDDR/DDR linker]”, in the assay on PSD-95, the “Interaction with PSD-95 using fluorescence polarization” value (“Interaction” for short) is “not to interact”.
With “DRTNHQVRSL [μOR-1A, synthetic peptide, C-terminal 10 aa of human µOR-1A with N-terminal YDDR/DDR linker]”, the “Interaction” value with PSD-95 is “not to interact”.
On to “EFKQNGDTSL [P2Y1, synthetic peptide, C-terminal 10 aa of human P2Y1 with N-terminal YDDR/DDR linker]”, for which the “Interaction” value in the assay on PSD-95 is “not to interact”.
The same measure, in the same setting: with “ESESSSFHSS [CXCR4, synthetic peptide, C-terminal 10 aa of human CXCR4 with N-terminal YDDR/DDR linker]” the entry was “not to interact”.
As for “ETSEASYSGL [CXCR3, synthetic peptide, C-terminal 10 aa of human CXCR3 with N-terminal YDDR/DDR linker]”, the “Interaction” value with PSD-95 is “not to interact”.
Still for that read-out and setting: with “EVVDSTTSSL [mGlu2, synthetic peptide, C-terminal 10 aa of human mGlu2 with N-terminal YDDR/DDR linker]” the entry was “not to interact”; with “GHPLMDSTL [LPA2, synthetic C-tail peptide of human LPA2 with N-terminal YDDR/DDR linker]”, “not to interact”; with “GVQPALGVGL [A2B, synthetic peptide, C-terminal 10 aa of human adenosine A2B receptor with N-terminal YDDR/DDR linker]”, “not to interact”.
Still for that read-out and setting: with “NDPESLESCF [5-HTR4(a), synthetic peptide, C-terminal 10 aa of human 5-HTR4(a) with N-terminal YDDR/DDR linker]” the entry was “not to interact”; with “QRERRQKSDW [μOR-1B2, synthetic peptide, C-terminal 10 aa of human µOR-1B2 with N-terminal YDDR/DDR linker]”, “not to interact”; with “QSPFPFPGRV [μOR-1B5, synthetic peptide, C-terminal 10 aa of human µOR-1B5 with N-terminal YDDR/DDR linker]”, “not to interact”.
Regarding “RDIDGMNKPV [κOR, synthetic peptide, C-terminal 10 aa of human κ opioid receptor (no PDZ motif) with N-terminal YDDR/DDR linker]”, the “Interaction” value with PSD-95 is given as “not to interact; also recorded: no interaction”.
Still for that read-out and setting: next, “RDYTQSSSSL [mGlu5(b), synthetic peptide, C-terminal 10 aa of human mGlu5(b) with N-terminal YDDR/DDR linker]”: “not to interact”.
Turning to “SDGPGGGAAA [δOR, synthetic peptide, C-terminal 10 aa of human δ opioid receptor with N-terminal YDDR/DDR linker]”, in the assay with PSD-95, the “Interaction” value is “not to interact”.
On to “SENATSLTTF [CXCR5, synthetic peptide, C-terminal 10 aa of human CXCR5 with N-terminal YDDR/DDR linker]”, for which the “Interaction” value with PSD-95 was “not to interact”.
Same read-out and setting: next, “SSSVNVSSNL [CXCR1, synthetic peptide, C-terminal 10 aa of human CXCR1 with N-terminal YDDR/DDR linker]”: “not to interact”; “TGEHEVSTGL [CCR5 Mouse, synthetic peptide, C-terminal 10 aa of mouse CCR5 with N-terminal YDDR/DDR linker]”: “not to interact”; “TGEQEISVGL [CCR5 Human, synthetic peptide, C-terminal 10 aa of human CCR5 with N-terminal YDDR/DDR linker]”: “not to interact”.
